Assay results taken from US8044022B2, “Hyaluronic acid binding peptides enhance host defense against pathogenic bacteria” (priority 2005, dated 2011).

System: GAS
Experiment: Bacterial translocation through polarized keratinocyte cultures (Transwell)
Format: cell-based, Group A Streptococcus
Conditions: two hours after addition of GAS
Method: Cell cultures: For the preparation of in vitro keratinocyte cultures, human primary OKP7 cells were derived from the oropharynx. Keratinocytes were seeded at 5×10^5 cells per well onto polycarbonate Transwell membrane supports (12 well plates, 3.0 μm pore size; Costar) or tissue culture treated plastic ware and cultured for 5-10 days at 37° C. with 5% humidified CO2 in cSFM medium with daily medium changes. Once confluent, the calcium concentration of the cSFM was increased to 1.2 mM and cells were cultured for 2 more days, before the integrity of the monolayer was assessed by measuring permeability to sodium fluorescein, and in some experiments, by measuring transepithelial electrical resistance.
Infection procedures: Keratinocyte layer cultures in Transwell inserts were inoculated in the upper chamber with GAS, S. equi, S. uberis, and P. multocida at a multiplicity of infection (MOI) of 1 bacterium per keratinocyte in the presence or absence of HABP01 or SCRM. Infected cultures were incubated at 37° C. with 5% CO2 for the desired time. In translocation experiments, Transwell inserts containing the keratinocytes were moved to new wells containing fresh medium every 2 hours to prevent overgrowth of bacteria that had translocated through the keratinocytes layer to the lower chamber. Bacterial translocation was quantified by culturing medium from the lower chamber at 2-hour intervals.
Bacterial translocation studies were performed to assess the impact of HABP01 on bacterial paracellular translocation through polarized keratinocyte cultures.
Incubation of GAS in the presence of HABP33, HABP35 and HABP42, also delayed GAS translocation. At two hours after the addition of GAS to the keratinocytes, approximately 530 CFU of GAS were detected in the lower level in cultures treated with PBS or SCRM peptide.

In the case of “HKSVSRHTSMRHSTM [SCRM, reference compound]”, the “GAS detected in the lower level” value is reported as “approximately 530 CFU”.
